Patent publication US9512486B2, “Materials, methods, and systems for treating cancer” (The Institute of Cancer Research: Royal Cancer Hospital, priority 2012, dated 2016)

Columns and labels:
Format in all cases: cell-based
[1] = test system: CAL51 cells transfected with siRNA directed against RAD51D; assay: Olaparib sensitivity after RAD51D silencing, cell viability (Cell TitreGlo), CAL51; settings: siRAD51D vs siCONTROL and siBRCA2, olaparib titration for 7 days, FIG. 3A
Source text: (§1) This method has clinical utility both for individuals with cancer and their relatives. Cancer patients with RAD51D mutations may benefit from specific therapies such as Poly (ADP-Ribose) Polymerase (PARP) inhibitors, which have shown efficacy in patients with impairment of HR due to mutations in BRCA1 or BRCA2. To investigate this we used RNA interference (RNAi) and assessed the relationship between RAD51D loss of function and the sensitivity of tumor cells to a clinical PARP inhibitor, olaparib (AstraZeneca) 4-[(3-[(4-cyclopropylcarbonyl)piperazin-4-yl]carbonyl)-4-fluorophenyl]methyl(2H)phthalazin-1-one. Referring now to FIG. 3. The effect of RAD51D silencing on olaparib sensitivity. CAL51 (FIG. 3A) or MCF7 (FIG. 3B) cells were transfected with siCONTROL, siRNA directed against RAD51D or siRNA directed against BRCA2 and then treated with olaparib for 7 days before assaying for cell viability. Wild-type CHO cells or CHO cells mutated in RAD51D were treated with olaparib for 7 days before assaying for cell viability (FIG. 3C).
(§2) Non-silencing BRCA2 and RAD51D SIGENOME siRNAs (Dharmacon, Lafayette, Colo., USA) were used. […] After 7 days continuous culture, cell viability was estimated using Cell TitreGlo reagent (Promega Madison, Wis., USA) and surviving fractions calculated as previously described.

[2] = test system: MCF7 cells transfected with siRNA directed against RAD51D; assay: Olaparib sensitivity after RAD51D silencing, cell viability (Cell TitreGlo), MCF7; settings: siRAD51D vs siCONTROL and siBRCA2, olaparib titration for 7 days, FIG. 3B
Source text: as §1, §2

[3] = test system: CHO cells mutated in RAD51D; assay: Olaparib sensitivity of wild-type versus RAD51D mutated CHO cells, cell viability; settings: CHO RAD51D WT (51D1.3 clone) vs RAD51D deficient CHO (51D1 clone), olaparib for 7 days, FIG. 3C
Source text: as §1, §2

O=C(c1cc(Cc2n[nH]c(=O)c3ccccc23)ccc1F)N1CCN(C(=O)C2CC2)CC1 [olaparib, 4-[(3-[(4-cyclopropylcarbonyl)piperazin-4-yl]carbonyl)-4-fluorophenyl]methyl(2H)phthalazin-1-one]
olaparib sensitivity (Surviving Fraction) [1]: olaparib sensitivity of a magnitude similar to that achieved using silencing of BRCA2
olaparib sensitivity (Surviving Fraction) [2]: olaparib sensitivity of a magnitude similar to that achieved using silencing of BRCA2
olaparib sensitivity (Surviving Fraction) [3]: RAD51D selective effect
olaparib sensitivity (Surviving Fraction) ([3]; listed as Olaparib): particularly effective in causing the death of cells that have an inactivating mutation of RAD51D
